Data from patent publication EP4737448A1, “SARM1 ENZYME ACTIVITY INHIBITOR AND USE THEREOF” (Artivila (ShenZhen) Innovation Center, Ltd., priority 2023, dated 2025).
pIC50: −log10 of the molar value.

biological target: T1, SARM1 (Homo sapiens, UniProt Q6SZW1); experiment: In vitro biochemical assay for inhibiting SARM1 enzymatic activity (PC6 fluorescence, NAD substrate, NMN activator); details: 0.05 µg/mL SARM1, 50 µM NAD, 50 µM PC6, 50 µM NMN, 10 min pre-incubation, 30 min at room temperature
T1 construct: the inventor produces full-length SARM1 for NADase activity assays and for screening; His (C); made in house; host or cells: HEK293 cells (transient transfection; digitonin lysate supernatant, not purified further)
T1 sequence (Q6SZW1 28-724): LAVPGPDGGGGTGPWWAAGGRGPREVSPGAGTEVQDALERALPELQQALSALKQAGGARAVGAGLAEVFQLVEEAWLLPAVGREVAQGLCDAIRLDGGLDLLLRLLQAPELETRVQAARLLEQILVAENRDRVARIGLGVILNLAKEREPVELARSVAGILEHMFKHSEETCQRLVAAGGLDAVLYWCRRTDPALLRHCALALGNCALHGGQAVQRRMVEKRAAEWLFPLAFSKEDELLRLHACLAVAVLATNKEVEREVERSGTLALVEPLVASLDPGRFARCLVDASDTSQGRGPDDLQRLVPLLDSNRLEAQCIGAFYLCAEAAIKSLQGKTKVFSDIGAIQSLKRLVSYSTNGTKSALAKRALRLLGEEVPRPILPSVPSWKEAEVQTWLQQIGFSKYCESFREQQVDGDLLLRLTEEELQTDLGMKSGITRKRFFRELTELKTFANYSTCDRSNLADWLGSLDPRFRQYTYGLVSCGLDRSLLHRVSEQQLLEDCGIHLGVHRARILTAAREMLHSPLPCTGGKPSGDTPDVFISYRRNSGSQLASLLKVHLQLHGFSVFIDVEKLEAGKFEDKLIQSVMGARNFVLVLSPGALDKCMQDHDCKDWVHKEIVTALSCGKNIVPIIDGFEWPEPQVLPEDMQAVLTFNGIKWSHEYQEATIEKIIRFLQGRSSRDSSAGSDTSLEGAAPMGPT
Procedure: Compounds to be tested were stocked at 200 µM or 10 mM (in DMSO), and further diluted to the desired compound concentration for the in vitro SARM1 enzyme assay and inhibitor screening.
The gene sequence encoding SARM1 protein was amplified by PCR and the PCR amplification product was constructed into the pcDNA3.1-HIS-C plasmid. This construction was completed by YouBio Biological Technology (Hunan, China).
HEK293 cells were cultured in DMEM in a 10 cm dish. The next day, cells were transfected with 15 µg of the pcDNA3.1-SARM1-HIS-C expression plasmid.
Cells were harvested 48 hours after the transfection. The SARM1 protein expressed in cells was obtained through cell lysis by digitonin, which was used for in vitro activity assay. The specific process was as follows:
Cells were digested and detached from the dish using trypsin-EDTA, centrifuged at 1000 rpm for 5 minutes, washed once with PBS, then resuspended in PBS containing 100 µM digitonin at 0.6 mL PBS for the cells in 10 cm dish and lysed for 5 min. The cells were added with trypan blue and observed under a microscope. More than 90% of the cells were confirmed to be lysed. The cells were centrifuged at 5000 rpm for 10 min, and the supernatant containing SARM1 protein was collected.
The compound was added into a solution of 50 mM Tris-HCl (pH 7.5) containing 0.05 µg/mL SARM1 to achieve a concentration of 200 µM, and then serially diluted 6 times, where each dilution was carried out by taking half of the previous solution and adding an equal volume of 50 mM Tris-HCl (pH 7.5) containing 0.05 µg/mL SARM1, yielding a set of final concentrations of the compound of either 200, 100, 50, 25, 12.5, 6.25 and 3.125 µM, or 200, 50, 12.5, 3.125, 0.78, 0.195 and 0.049 µM. No inhibitor was added in the control group. All mixtures were incubated at room temperature for 10 min.
Subsequently, 50 µM NAD, 50 µM PC6 as substrate and 50 µM NMN as activator were added to the SARM1 protein incubated with the inhibitor and reacted for 30 min at room temperature. Wherein, the aforementioned concentrations of each component represent their respective final concentrations in the reaction system
During the reaction, the fluorescence spectrum dynamics of PC6 was detected by a microplate reader, with excitation and emission wavelengths set at 390 nm and 520 nm, respectively. The activity of the protein was expressed as the reaction rate and half maximal inhibitory concentration was calculated. The higher the reaction rate, the stronger the protein activity, and the lower the inhibitory efficiency of the compound.
Dose-response curves for inhibition of SARM1 enzymatic activity for NAD by the compounds were plotted using the above method.

| pIC50 | Compound |
| --- | --- |
| 5.00 to 6.00 | COc1cc(-c2ccncc2)ccc1N1CCCC(Cc2ccc(Cl)cc2)C1=O (stereo not drawn) [Compound 39, 3-(4-chlorobenzyl)-1-(2-methoxy-4-(pyridin-4-yl)phenyl)piperidin-2-one] |
| 4.52 to 5.00 | O=C1C(Cc2cccc(Cl)c2)CCN1c1ccc(-c2ccncc2)cc1 (stereo not drawn) [Compound 26, 3-(3-chlorobenzyl)-1-(4-(pyridin-4-yl)phenyl)pyrrolidin-2-one] |
| 5.00 to 6.00 | Cc1cc(N2CCC(Cc3ccc(Cl)cc3)C2=O)ccc1-c1ccncc1 (stereo not drawn) [Compound 10, 3-(4-chlorobenzyl)-1-(3-methyl-4-(pyridin-4-yl)phenyl)pyrrolidin-2-one] |
| 5.00 to 6.00 | N#Cc1ccc(CC2CCN(c3ccc(-c4ccncc4)cc3)C2=O)cc1 (stereo not drawn) [Compound 19, 3-(4-cyanobenzyl)-1-(4-(pyridin-4-yl)phenyl)pyrrolidin-2-one] |
| 5.00 to 6.00 | O=C1C(Cc2ccc(F)c(F)c2)=CCN1c1ccc(-c2ccncc2)cc1 [Compound 85, 3-(3,4-difluorobenzyl)-1-(4-(pyridin-4-yl)phenyl)-1,5-dihydro-2H-pyrrolidin-2-one] |
| 4.52 to 5.00 | O=C1C(Cc2ccc(Cl)cc2)CCN1c1ccc(-c2ccncc2)cc1Cl (stereo not drawn) [Compound 11, 3-(4-chlorobenzyl)-1-(2-chloro-4-(pyridin-4-yl)phenyl)pyrrolidin-2-one] |
| 5.00 to 6.00 | NC(=O)c1cnccc1-c1ccc(N2CCC(Cc3ccc(Cl)cc3)C2=O)cc1 (stereo not drawn) [Compound 37] |
| 4.52 to 5.00 | C#Cc1ccc(CC2CCN(c3ccc(-c4ccncc4)cc3)C2=O)cc1 (stereo not drawn) [Compound 89, 3-(4-ethynylbenzyl)-1-(4-(pyridin-4-yl)phenyl)pyrrolidin-2-one] |
| > 6.00 | Cc1ccc(CC2CCN(c3ccc(-c4ccncc4)nn3)C2=O)cc1 (stereo not drawn) [Compound 63] |
| 5.00 to 6.00 | O=C1C(Cc2ccc(Cl)cc2)CCCN1c1ccc(-c2ccncc2)cc1 (stereo not drawn) [Compound 38, 3-(4-chlorobenzyl)-1-(4-(pyridin-4-yl)phenyl)piperidin-2-one] |
| > 6.00 | O=C1C(Cc2cc(F)cc(F)c2)CCN1c1ccc(-c2ccncc2)nn1 (stereo not drawn) [Compound 68] |
| > 6.00 | Cc1cnccc1-c1ccc(N2CCC(Cc3ccc(Cl)cc3)C2=O)cc1 (stereo not drawn) [Compound 14, 3-(4-chlorobenzyl)-1-(4-(3-methylpyridin-4-yl)phenyl)pyrrolidin-2-one] |
| 4.52 to 5.00 | CC(=O)c1ccc(CC2CCN(c3ccc(-c4ccncc4)cc3)C2=O)cc1 (stereo not drawn) [Compound 91, 3-(4-acetylbenzyl)-1-(4-(pyridin-4-yl)phenyl)pyrrolidin-2-one] |
| > 6.00 | Cc1cnccc1-c1ccc(N2CCC(Cc3ccc(Cl)cc3)C2=O)nn1 (stereo not drawn) [Compound 74, 3-(4-chlorobenzyl)-1-(6-(3-methylpyridin-4-yl)pyridazin-3-yl)pyrrolidin-2-one] |
| 5.00 to 6.00 | O=C1C(Cc2ccc(Cl)o2)CCN1c1ccc(-c2ccncc2)cc1 (stereo not drawn) [Compound 73] |
| 5.00 to 6.00 | O=C1C(Cc2ccc(Cl)cc2)CCN1c1ccc(-c2ccncn2)cc1 (stereo not drawn) [Compound 9, 3-(4-chlorobenzyl)-1-(4-(pyrimidin-4-yl)phenyl)pyrrolidin-2-one] |
| 4.52 to 5.00 | O=C1C(Oc2ccc(Cl)cc2)CCN1c1ccc(-c2ccncc2)cc1 (stereo not drawn) [Compound 2, 3-(4-chlorophenoxy)-1-(4-(pyridin-4-yl)phenyl)pyrrolidin-2-one] |
| 5.00 to 6.00 | O=C1C(Cc2ccc(/C=C/Cl)cc2)CCN1c1ccc(-c2ccncc2)cc1 (stereo not drawn) [Compound 90, (E)-3-(4-(2-chloroethenyl)benzyl)-1-(4-(pyridin-4-yl)phenyl)pyrrolidin-2-one] |
| 5.00 to 6.00 | O=C1C(Cc2ccc(Cl)cc2)CCON1c1ccc(-c2ccncc2)cc1 (stereo not drawn) [Compound 40, 4-(4-chlorobenzyl)-2-(4-(pyridin-4-yl)phenyl)-1,2-oxaza-3-one] |
| 5.00 to 6.00 | O=C1C(Cc2ccc(C(F)(F)F)cc2)CCN1c1ccc(-c2ccncc2)cc1 (stereo not drawn) [Compound 18, 3-(4-trifluoromethylbenzyl)-1-(4-(pyridin-4-yl)phenyl)pyrrolidin-2-one] |
| > 6.00 | N#Cc1ccc(CC2CCN(c3ccc(-c4ccncc4)nn3)C2=O)cc1 (stereo not drawn) [Compound 61] |
